Results as given in patent publication US4362736A, “Guanidinothiazole compounds, and medical compositions containing them” (Yamanouchi Pharmaceutical Co., Ltd., priority 1979, dated 1982).
Where a name gives a salt, the structure may show the parent alone.

Key:
Acute toxicity in mice = settings: mouse, in vivo, iv, 7 days observation, up and down method; read-out: (C) LD50 in mice
Method: Drugs were injected intravenously in male ICR mice weighing about 35 g at a rate of 0.1 ml/10 g/10 sec and the animals were kept under observation for 7 days. LD50 values were determined by the up and down method using 10 animals. The data are shown in Table I, under column entitled (C).

Gastric acid secretion [1] = assay: Gastric acid secretion in pylorus-ligated rats; assay type: in vivo, Male Wister rats; settings: Rattus norvegicus, intraduodenal, 4 hrs., probit method, read-out: (B) Pylorus-ligated rats ED50
Method: Male Wister rats weighing about 200 g were deprived of food for 24 hrs. but allowed free access to water prior to the experiments in individual cages. […] Test compounds were intraduodenally given immediately after the ligation of pylorus. The animals were sacrificed 4 hrs. after drug administration and gastric contents were collected. […] The percent inhibition of gastric secretion by each dose of drugs was calculated from the acid outputs of control and of treated groups. ED50 values were determined by the probit method.

Gastric acid secretion [2] = assay: Gastric acid secretion in anesthetized dogs (histamine-induced); assay type: in vivo, Mongrel dogs; settings: Canis lupus familiaris, iv, histamine infusion 160 μg/Kg-hr, dose producing 50% inhibition of acid output
Method: Mongrel dogs weighing 8 to 15 Kg were deprived of food for 24 hrs. and anesthetized intravenously with pentobarbital (30 mg/Kg). […] The gastric juice was collected from the gastric cannula by gravity drainage every 15 min. Test compounds were given intravenously after gastric secretion induced by a continuous intravenous infusion of histamine (160 μg/Kg-hr) reached a steady state.

H2 -receptor = settings: Ash and Schild; Black et al.; cited from earlier work

SMILES | LD50 at 168 h (Acute toxicity in mice) [mg/kg] | ED50 (Gastric acid secretion [1]) [mg/kg] | ED50 (Gastric acid secretion [2]) [mg/kg] | inhibition of histamine effects on gastric acid secretion and heart rate in isolated guinea pig atrium (H2 -receptor)
N#CNC(=N)CCSCc1csc(NC(=N)N)n1 [Example 3, N-cyano-3-[(2-guanidinothiazol-4-yl)methylthio]propionamidine] | 147 | 13.8 | 0.0183 ± 0.0007 | 
NC(=O)N=C(N)CCSCc1csc(N=C(N)N)n1 [Example 9, N-carbamoyl-3-[(2-guanidinothiazol-4-yl)methylthio]propionamidine.di-hydrochloride] | 97.8 | 12.7 | 0.0064 ± 0.0006 | 
COc1ccc(CN(CCN(C)C)c2ccccn2)cc1 [mepyramine] |  |  |  | not inhibited
C/N=C(\S)NCCSCc1[nH]cnc1C [metiamide] |  |  |  | antagonized
